Experimental data published in patent publication US4921863A, “Cyclic amine derivatives” (Eisai Co., Ltd., priority 1988, dated 1990).

Tested on: learning disorder after ischemia
Experiment: Effect of remedying learning disorder after ischemia (passive avoidance method)
Assay type: in vivo, Mongolian gerbils
Conditions: p.o.; for Latent time (average ± S.E.): 1 h before 5-min ischemia, upper limit 300 sec, normal 246.5, control 71.5 sec; for Recovery ratio: normal = 100, control = 0
Description: Common carotid arteries on both sides of Mongolian gerbils (17 to 21 weeks old) were clipped with Skoville clamps without anesthesia and the clamps were removed after 5 min to realize a short period of ischemia. Twenty-four hours after the removal of the clamps, these animals were subjected to learning and memory tests were conducted after an additional 24 h. The learning and memory functions were examined by the passive avoidance method with a modification of a device reported by Jarvik and Kopp in "Psychological Reports", 21, 221 to 224 (1967). The device had two chambers, […] chamber A and a dark chamber B. In the tests, the animals were placed in the well-lighted chamber A and an electric current (A.C., 1.6 mA) was applied to a grid on the floor of the dark chamber B for 5 min when they entered the chamber B. On the next day, the animals subjected to the learning were placed in the chamber A and the time (latent time) which had elapsed before they entered the chamber B was measured. The upper limit of the latent time was set at 300 sec. The compound was administered in the form of a 5% suspension in acacia orally one hour before causing the ischemia. A 5% acacia solution was administered to the control group.

SMILES	Latent time (average ± S.E.) (3 mg/kg)	Recovery ratio (3 mg/kg)	Latent time (average ± S.E.) (10 mg/kg)	Recovery ratio (10 mg/kg)	Latent time (average ± S.E.) (30 mg/kg)	Recovery ratio (30 mg/kg)
Cl.O=C(CN1CCC(C(=O)c2ccc(F)cc2)CC1)c1ccc2ccccc2c1 [Example 12, 2-[4-(p-Fluorobenzoyl)-1-piperidinyl]-2'-acetonaphthone hydrochloride]	168.8 ± 23.0 s	56%	196.8 ± 22.3 s	72%	196.3 ± 37.0 s	71%
c1ccc(CC2CCN(CCc3ccc4ccccc4c3)CC2)cc1 [Example 73]	–	–	193.1 ± 35.3 s	69%	80.1 ± 28.2 s	5%
O=C(CN1CCC(=Cc2ccc(F)cc2)CC1)c1ccc2ccccc2c1 [Example 74]	110.2 ± 29.0 s	22%	123.2 ± 24.3 s	30%	129.2 ± 23.8 s	33%
